# Data published in US12168803B2, “Compositions and methods for screening and diagnosis of prostate cancer” (DANA-FARBER CANCER INSTITUTE, INC., priority 2015, dated 2024).
# Columns and labels:
# LAPC4 cells [1] = experiment: Cell growth / viability (Trypan Blue exclusion) of LAPC4 cells; format: cell-based, human
# Description: (§1) To interrogate the differential sensitivity to docetaxel of prostate cancer cells, two prostate cancer cell lines, LNCaP and LAPC4, were compared.
# (§2) LNCaP-Abl cell line was provided by Zoran Culig (Innsbruck Medical University). LNCaP-C42 cell line was obtained from ViroMed Laboratories (Minneapolis). LNCaP-104R2 cell line was provided by Shutsung Liao (University of Chicago), and LAPC-4 cell line was provided by Charles Sawyers (Memorial Sloan Kettering Cancer Center). These cells were maintained with 10% fetal bovine serum (FBS) (LNCaP, LNCaP-C42, LMCaP-AI, VCAP, 22RV1, LAPC4, PC3, and DU145) or 10% charcoal-stripped serum (CSS) (LNCaP-Abl, and LNCaP-104R2) at 37 c in 5% CO2.
# LNCaP cells = experiment: Cell growth / viability (Trypan Blue exclusion) of LNCaP cells; format: cell-based, human
# Description: as §1, §2
# LAPC4 cells [2] = settings: LAPC4, upon docetaxel treatment
# Description: as §1
# [3] = system: docetaxel-resistant prostate cancer; settings: docetaxel-resistant patients; cited from earlier work
# [4] = system: metastatic castration-resistant prostate cancer (mCRPC); settings: first-line; cited from earlier work
# [5] = system: metastatic hormone sensitive prostate cancer (mHSPC); settings: docetaxel given at the time of starting ADT for mHSPC; cited from earlier work
structure (smiles),measurement,setting,value
"C[C@]12CCC(=O)C[C@@H]1CC[C@@H]1[C@@H]2CC[C@]2(C)[C@@H](O)CC[C@@H]12 [DHT, dihydro-testosterone]",impact of DHT treatment on docetaxel sensitivity,LAPC4 cells [1]; LAPC4,dose-dependent
same,effect of DHT on viability in docetaxel,"LAPC4 cells [1]; LAPC4, 0.01 nM to 0.1 mM docetaxel, Trypan Blue exclusion",markedly increased
same,effect of 10 nM DHT on cell growth in the presence of docetaxel,"LAPC4 cells [1]; LAPC4, 10 nM docetaxel",restoration of cell growth
same,effect of DHT on viability against docetaxel,"LNCaP cells; LNCaP, 0.01 nM to 0.1 mM docetaxel, Trypan Blue exclusion",not significantly affected
same,effect of DHT on PARP cleavage,LAPC4 cells [2],specifically reduced
CO[C@H]1C(=O)[C@]2(C)[C@@H](OC)C[C@H]3OC[C@@]3(OC(C)=O)[C@H]2[C@H](OC(=O)c2ccccc2)[C@]2(O)C[C@H](OC(=O)[C@H](O)[C@@H](NC(=O)OC(C)(C)C)c3ccccc3)C(C)=C1C2(C)C [cabazitaxel],improvement of median OS over mitoxantrone,[3],2.4 months
same,median OS,[3],15.1 months
CC(=O)O[C@@]12CO[C@@H]1C[C@H](O)[C@@]1(C)C(=O)[C@H](O)C3=C(C)[C@@H](OC(=O)[C@H](O)[C@@H](NC(=O)OC(C)(C)C)c4ccccc4)C[C@@](O)([C@@H](OC(=O)c4ccccc4)[C@H]21)C3(C)C [docetaxel],IC20,"LAPC4 cells [1]; Homo sapiens, LAPC4 cells, growth, read-out: IC20 concentration",5 nM
same,sensitivity of cells to docetaxel,"LAPC4 cells [1]; LAPC4, 10 nM docetaxel, absence of DHT",sensitive
same,IC20,"LNCaP cells; Homo sapiens, LNCaP cells, growth, read-out: IC20 concentration",0.5 nM
same,sensitivity of cells to docetaxel,"LNCaP cells; LNCaP, 10 nM docetaxel, absence of DHT",sensitive
same,prolongation of median overall survival (OS) over mitoxantrone,[4],~2 month
same,OS,[5],57 months
same,improvement of OS,[5],13 months
CNC(=O)c1ccc(N2C(=S)N(c3ccc(C#N)c(C(F)(F)F)c3)C(=O)C2(C)C)cc1F [enzalutamide],effect on viability of cells treated with docetaxel in DHT supplemented media,LAPC4 cells [1]; LAPC4,substantially reduced
same,effect on docetaxel sensitivity in the presence of DHT,"LAPC4 cells [1]; LAPC4, 10 nM docetaxel, DHT",resensitized the cells to docetaxel
O=C1c2c(O)ccc(O)c2C(=O)c2c(NCCNCCO)ccc(NCCNCCO)c21 [mitoxantrone],median OS,[3],12.7 months
